Among the data in patent publication EP4800018A1, “PAN-KRAS INHIBITOR AND USE THEREOF IN MEDICINES” (Betta Pharmaceuticals Co., Ltd., priority 2023, dated 2025) are IC50 values, retold here.

Common to all, as to format: cell-based
Test [1] concerns KRAS-G12V mutant tumor cells SW620. The test is described as follows: Cell Proliferation Inhibition Assay (SW620), Cell-titer GLO, 96 h. The conditions noted are these: Homo sapiens, SW-620, 96 h, SW620 cells, 96 h incubation, Cell-titer GLO; read-out: SW620(G12V). In outline: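 SW620 cells (1×10^3/well, low-attachment) were exposed to compound from 10000 to 0.03 nM (0.5% DMSO) for 96 h at 37°C. Viability was read by Cell-titer GLO luminescence. Inhibition was calculated relative to DMSO and blank wells, and IC50 obtained by curve fitting.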

For a further test, the target named is T1, KRAS G12D-cRAF (Homo sapiens, UniProt P01116, G12D).
T1 construct: expressed in transfected cells
The test is described as follows: Cellular KRAS G12D-cRAF Binding Inhibition Assay (NanoBRET, AD293 stable cells). Conditions: 3 h incubation, read-out: NanoBRET KRAS G12D. The procedure: (§1) NanoLuc® luciferase was used as the energy donor, and NanoBRET™ 618 fluorescent ligand labeled with the HaloTag® protein was used as the energy acceptor to detect protein-protein interactions in living cells. AD293 stable cells transfected with KRAS G12D-NanoLuc® luciferase and cRAF RBD-HaloTag® tag protein were seeded in 96-well plates at a cell density of 1×10^4 cells/well. Except for wells with medium added as a blank control, NanoBRET™ 618 fluorescent ligand was added to all other wells, and the plates were cultured overnight in a cell culture incubator. […] The luminescence data were calculated and converted into inhibition percent. The inhibition percent of KRAS G12D-cRAF binding was calculated according to the following formula: Inhibition Percent = (MaxValue−MeasuredValue)/(MaxValue−Blank) × 100% [formula] […] Curve fitting was performed using GraphPad Prism software to obtain IC50 values, see Table 1.
For orientation: BRET reads energy transfer from a luciferase to a nearby fluorophore.

The test system of test [2] is KRAS-G12D mutant tumor cells AGS. Description: Cell Proliferation Inhibition Assay (AGS), Cell-titer GLO, 96 h. Conditions: Homo sapiens, AGS, 96 h, AGS cells, 96 h incubation, Cell-titer GLO; read-out: AGS(G12D). In outline: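 AGS cells (KRAS-G12D) grown in low-attachment plates were exposed to compound for 96 h at 37°C. Viability was read by CellTiter-Glo luminescence and converted to % inhibition against max and blank wells. IC50 came from curve fitting.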

Another test addresses T2, KRAS G12V-cRAF (Homo sapiens, UniProt P01116, G12V).
T2 construct: expressed in transfected cells
The test is described as follows: Cellular KRAS G12V-cRAF Binding Inhibition Assay (NanoBRET, AD293 stable cells). Conditions: 3 h incubation, read-out: NanoBRET KRAS G12V. On the procedure: as §1, with “AD293 stable cells transfected with KRAS G12D-NanoLuc® luciferase and cRAF RBD-HaloTag® tag protein were seeded in 96-well plates at a cell density of 1×10^4 cells/well.” left out, “G12V-cRAF” for “G12D-cRAF”

T1 sequence (P01116 1-188 isoform P01116-2 G12D): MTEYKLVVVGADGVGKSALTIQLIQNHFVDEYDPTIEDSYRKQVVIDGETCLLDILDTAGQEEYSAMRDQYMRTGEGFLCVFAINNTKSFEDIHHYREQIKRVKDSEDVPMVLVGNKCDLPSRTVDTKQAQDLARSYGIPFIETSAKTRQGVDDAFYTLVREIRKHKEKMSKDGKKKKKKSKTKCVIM
T2 sequence (P01116 1-188 isoform P01116-2 G12V): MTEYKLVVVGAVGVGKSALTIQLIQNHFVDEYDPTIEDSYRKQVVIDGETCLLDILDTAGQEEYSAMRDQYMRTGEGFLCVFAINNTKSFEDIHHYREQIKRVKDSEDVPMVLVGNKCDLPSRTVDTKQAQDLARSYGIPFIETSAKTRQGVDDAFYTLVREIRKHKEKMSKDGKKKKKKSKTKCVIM

As to `CC1OCCCn2c(c3c4cc(ccc42)-c2csc(n2)CC(NC(=O)C24CC(C)(C2)C4)C(=O)N2CCCC(N2)C(=O)OCC(C)(C)C3)-c2cc(N3CCN(C4CC4)CC3)cnc21` [Example 40, N-((1^5S,6^3S,4S,Z)-1^2-(4-cyclopropylpiperazin-1-yl)-1^5,10,10-trimethyl-5,7-dioxo-1^8,1^9,6^1,6^2,6^3,6 ^4,6^5,6^6-octahydro-1^5H,1^7H-8-oxa-1(13,15)-pyrido[3',2':7,8][1,5]oxazonino[5,6-a]indola-2(4,2)-thiazola-6(1,3)-pyridazinacycloundecaphane-4-yl)-3-methylbicyclo[1.1.1]pentane-1-carboxamide], the IC50 in test [1] was determined as 4.29 nM; at KRAS G12D-cRAF it was 15.8 nM; in test [2], 22.4 nM; on KRAS G12V-cRAF, 61.1 nM.

Take `CC1OCCCn2c(c3c4cc(ccc42)-c2csc(n2)CC(NC(=O)C24CC(C)(C2)C4)C(=O)N2CCCC(N2)C(=O)OCC(C)(C)C3)-c2cc(N3CCN(C)CC3)cnc21` [Example 80, 3-methyl-N-((1^53 ^3S,4S,Z)-1^5,10,10-trimethyl-1^2-(4-methylpiperazin-1-yl)-5,7-dioxo-1^8,1^9,6^1,6^2 ,6^3,6^4,6^5,^6-octahydro-1^5H,1^7H-8-oxa-1(13,15)-pyrido[3',2':7,8][1,5]oxazonino[5,6-a]indola-2(4, 2)-thiazola-6(1,3)-pyridazinacycloundecaphane-4-yl)bicyclo[1.1.1]pentane-1-carboxamide]: the IC50 in test [1] came to 0.3 nM; on KRAS G12D-cRAF it was 5.7 nM; in test [2], 1.76 nM; at KRAS G12V-cRAF, 21.3 nM.

For `CC1OCCCn2c(c3c4cc(ccc42)-c2csc(n2)CC(NC(=O)C2CC2C(F)F)C(=O)N2CCCC(N2)C(=O)OCC(C)(C)C3)-c2cc(N3CCN(C)CC3)cnc21` [Example 81, (1S,2S)-2-(difluoromethyl)-N-((1^5S,6^3S,4S,Z)-1^5,10,10-trimethyl-1^2-(4-methylpiperazin-1-yl)-5,7-dioxo-1^8,1^9,6^1,6^2,6^3,6^4,6^5,6^6-octahydro-1^5H,1^7H-8-oxa-1(13,15)-pyrido[3',2':7,8][1,5]oxazonino[5,6-a]indola-2(4,2)-thiazola-6(1,3)-pyridazinacycloundecaphane-4-yl)cyclopropane-1-carboxamide], the IC50 in test [1] stood at 0.11 nM; at KRAS G12D-cRAF it was 3.14 nM; in test [2] it was 0.79 nM; at KRAS G12V-cRAF it was 9.6 nM.

In the case of `CC1OCCCn2c(c3c4cc(ccc42)-c2csc(n2)CC(NC(=O)C2CC2C(F)F)C(=O)N2CCCC(N2)C(=O)OCC(C)(C)C3)-c2cc(N3CCOCC3)cnc21` [Example 83, (1S,2S)-2-(difluoromethyl)-N-((1^5S,6^3S,4S,Z)-1^5,10,10-trimethyl-1^2-morpholino-5,7-dioxo-1^8,1^9, 6^1,6^2,6^3,6^4,6^56-octahydro-1^5H,1^7H-8-oxa-1(13,15)-pyrido[3',2':7,8][1,5]oxazonino[5,6-a]indola-2(4,2)-thiazola-6(1,3)-pyridazinacycloundecaphane-4-yl)cyclopropane-1-carboxamide], the IC50 in test [1] was 0.33 nM; at KRAS G12D-cRAF, 2.88 nM; in test [2] it was 2.04 nM; at KRAS G12V-cRAF, 11.9 nM.

Take `CCN1CCN(c2cnc3c(c2)-c2c4c5cc(ccc5n2CCCOC3C)-c2csc(n2)CC(NC(=O)C2CC2C(F)F)C(=O)N2CCCC(N2)C(=O)OCC(C)(C)C4)CC1` [Example 84, (1S,2S)-2-(difluoromethyl)-N-((1^5S,6^3S,4S,Z)-1^2-(4-ethylpiperazin-1-yl)-1^5,10,10-trimethyl-5,7-dioxo-1^8,1^9,6^1,6^2,6^3,6^4,6^5,6^6-octahydro-1^5H,1^7H-8-oxa-1(13,15)-pyrido[3',2':7,8][1,5]oxazonino[5,6-a]indola-2(4,2)-thiazola-6(1,3)-pyridazinacycloundecaphane-4-yl)cyclopropane-1-carboxamide]: the IC50 in test [1] was found to be 0.19 nM; on KRAS G12D-cRAF, 2.76 nM; in test [2] it was 1.15 nM; on KRAS G12V-cRAF, 9.17 nM.

Take `CC1OCCCn2c(c3c4cc(ccc42)-c2csc(n2)CC(NC(=O)C2CC2C(F)F)C(=O)N2CCCC(N2)C(=O)OCC(C)(C)C3)-c2cc(N3CCN(C4CC4)CC3)cnc21` [Example 85, (1S,2S)-N-((1^5S,6^3S,4S,Z)-1^2-(4-cyclopropylpiperazin-1-yl)-15,10,10-trimethyl-5,7-dioxo-1^8,1^9,6 ,6^2,6^3,6^4,6^5,6^6-octahydro-1^5H,1^7H-8-oxa-1(13,15)-pyrido[3',2':7,8][1,5]oxazonino[5,6-a]indola-2(4,2)-thiazola-6(1,3)-pyridazinacycloundecaphane-4-yl)-2-(difluoromethyl)cyclopropane-1-car boxamide]: the IC50 in test [1] was 0.63 nM; on KRAS G12D-cRAF it was 5.56 nM; in test [2], 3.72 nM; on KRAS G12V-cRAF, 19.9 nM.

On to `CC1OCCCn2c(c3c4cc(ccc42)-c2csc(n2)CC(NC(=O)C2CC2C(F)F)C(=O)N2CCCC(N2)C(=O)OCC(C)(C)C3)-c2cc(N3CCN(C(C)C)CC3)cnc21` [Example 86, (1S,2S)-2-(difluoromethyl)-N-((1^5S,6^3S,4S,Z)-1^2-(4-isopropylpiperazin-1-yl)-1^5,10,10-trimethyl-5,7-dioxo-1^8,1^9,6^1,6^2,6^3,6^4,6^5,6^6-octahydro-1^5H,1^7H-8-oxa-1(13,15)-pyrido[3',2':7,8][1,5]oxazonino[5,6-a]indola-2(4,2)-thiazola-6(1,3)-pyridazinacycloundecaphane-4-yl)cyclopropane-1-carbox amide], for which the IC50 was determined as 0.17 nM in test [1], 2.19 nM at KRAS G12D-cRAF, 1.19 nM in test [2] and 11 nM at KRAS G12V-cRAF.

Take `CC1OCCCn2c(c3c4cc(ccc42)-c2csc(n2)CC(NC(=O)C2CC2C(F)F)C(=O)N2CCCC(N2)C(=O)OCC(C)(C)C3)-c2cc(N(C)CCN(C)C)cnc21` [Example 87, (1S,2S)-2-(difluoromethyl)-N-((1^5S,6^3S,4S,Z)-1^2-((2-(dimethylamino)ethyl)(methyl)amino)-1^5,1 0,10-trimethyl-5,7-dioxo-1^8,1^9,6^1,6^2,6^3,6^4,6^5,6^6-octahydro-1^5H,1^7H-8-oxa-l(13,15)-pyrido[3',2':7 ,8][1,5]oxazonino[5,6-a]indola-2(4,2)-thiazola-6(1,3)-pyridazinacycloundecaphane-4-yl)cyclopr opane-1-carboxamide]: the IC50 in test [1] was 2.75 nM; at KRAS G12D-cRAF, 38.8 nM; in test [2], 8.3 nM; at KRAS G12V-cRAF, 184 nM.

On to `[2H]C([2H])([2H])N1CCN(c2cnc3c(c2)-c2c4c5cc(ccc5n2CCCOC3C)-c2csc(n2)CC(NC(=O)C2CC2C(F)F)C(=O)N2CCCC(N2)C(=O)OCC(C)(C)C4)CC1` [Example 91, (1S,2S)-2-(difluoromethyl)-N-((1^5S,6^3S,4S,Z)-1^5,10,10-trimethyl-1^2-(4-(methyl-d3)piperazin-1-yl)-5,7-dioxo-1^8,1^9,6^1,6^2,6^3,6^4,6^5,6^6-octahydro-1^5H,1^7H-8-oxa-1(13,15)-pyrido[3',2':7,8][1,5]oxazonino[5,6-a]indola-2(4,2)-thiazola-6(1,3)-pyridazinacycloundecaphane-4-yl)cyclopropane-1-carb oxamide], for which the IC50 in test [1] stood at 0.21 nM; on KRAS G12D-cRAF, 2.7 nM; in test [2] it was 1.51 nM; at KRAS G12V-cRAF it was 10.3 nM.
